The target of this test is T1, human HSL (Homo sapiens, UniProt Q05469).
T1 construct: generate a full length human HSL ORF with a 3′-His6 tag; made in house; host or cells: High 5 insect cells (baculovirus, pFast-BAC)
T1 sequence (Q05469 1-1076): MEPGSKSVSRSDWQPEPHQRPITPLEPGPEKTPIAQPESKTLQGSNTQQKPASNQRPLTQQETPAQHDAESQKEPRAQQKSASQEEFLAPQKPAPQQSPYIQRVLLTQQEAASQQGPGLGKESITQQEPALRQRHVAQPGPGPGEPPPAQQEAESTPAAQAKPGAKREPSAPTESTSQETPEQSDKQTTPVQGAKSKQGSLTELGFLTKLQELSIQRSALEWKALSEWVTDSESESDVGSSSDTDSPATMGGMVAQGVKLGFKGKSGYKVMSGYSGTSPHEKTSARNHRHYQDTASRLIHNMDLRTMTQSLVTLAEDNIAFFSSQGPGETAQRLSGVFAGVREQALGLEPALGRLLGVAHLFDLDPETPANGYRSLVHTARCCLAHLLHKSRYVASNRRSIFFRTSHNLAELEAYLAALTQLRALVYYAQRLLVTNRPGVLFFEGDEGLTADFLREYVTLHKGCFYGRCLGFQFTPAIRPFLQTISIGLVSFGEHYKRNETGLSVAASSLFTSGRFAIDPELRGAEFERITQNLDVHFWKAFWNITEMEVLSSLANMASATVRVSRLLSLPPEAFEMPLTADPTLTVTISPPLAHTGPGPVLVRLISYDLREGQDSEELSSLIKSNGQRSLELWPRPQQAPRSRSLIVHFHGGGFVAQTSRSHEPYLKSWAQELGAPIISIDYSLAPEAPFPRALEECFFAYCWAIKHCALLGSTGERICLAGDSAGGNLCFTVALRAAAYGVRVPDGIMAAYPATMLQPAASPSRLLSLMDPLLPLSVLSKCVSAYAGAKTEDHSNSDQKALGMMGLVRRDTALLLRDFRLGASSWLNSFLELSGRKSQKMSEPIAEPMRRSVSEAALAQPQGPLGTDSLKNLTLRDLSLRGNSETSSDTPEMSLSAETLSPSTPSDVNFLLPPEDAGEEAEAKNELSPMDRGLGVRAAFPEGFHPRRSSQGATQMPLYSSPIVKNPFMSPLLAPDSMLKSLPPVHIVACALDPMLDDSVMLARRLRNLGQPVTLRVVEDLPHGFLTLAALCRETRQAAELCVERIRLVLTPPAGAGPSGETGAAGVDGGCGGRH
As to the kind of experiment: Human Hormone-Sensitive Lipase (HSL) enzyme inhibition assay (colorimetric, DMPT substrate). Format: biochemical. As to conditions: human full length HSL-His6, 2,3-dimercapto-1-propanol tributyrate substrate, 37° C. 20 minutes, absorbance at 405 nm; read-out: HSL hum IC50. The essentials:
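Full-length human HSL with C-terminal His6, expressed in baculovirus-infected High 5 cells and Ni-NTA purified, was added (15 ug/ml stock) to 1.5 mM DMPT in 100 mM MOPS pH 7.2, 0.2 mg/ml fatty acid-free BSA containing compound. After 20 min at 37 °C, DTNB with SDS/Triton X-100 was added; A405 read after 15 min at RT.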

Molecules are shown by their SMILES. pIC50: −log10 of the molar value.

As for `CC[C@]1(O)CC[C@]2(CCN(c3ccc4c(c3)OC(F)(F)O4)C2=O)CC1` [Example 337, (5α,8α)-2-(2,2-Difluoro-benzo[1,3]dioxol-5-yl)-8-ethyl-8-hydroxy-2-aza-spiro[4.5]decan-1-one], the pIC50 was 7.10.

As for `CC(=O)[C@]1(O)CC[C@]2(CCN(c3ccc(OCC(F)(F)F)cc3)C2=O)CC1` [Example 338, (5α,8α)-8-Acetyl-8-hydroxy-2-[4-(2,2,2-trifluoro-ethoxy)-phenyl]-2-aza-spiro[4.5]decan-1-one], the pIC50 is 6.60.

For `CC(C)(O)[C@]1(O)CC[C@]2(CCN(c3ccc(OCC(F)(F)F)cc3)C2=O)CC1` [Example 339, (5α,8α)-8-Hydroxy-8-(1-hydroxy-1-methyl-ethyl)-2-[4-(2,2,2-trifluoro-ethoxy)-phenyl]-2-aza-spiro[4.5]decan-1-one], the pIC50 was 6.92.

Consider `O=C1N(c2ccc(C3CC(F)(F)C3)cc2)CC[C@]12CC[C@@](O)(C(F)(F)F)CC2` [Example 340, (5α,8α)-2-[4-(3,3-Difluoro-cyclobutyl)-phenyl]-8-hydroxy-8-trifluoromethyl-2-aza-spiro[4.5]decan-1-one], for which the pIC50 is 7.40.

For `O=C1N(c2ccc(C3CC(F)(F)C3)cc2)CC[C@]12CC[C@](O)(C(F)(F)F)CC2` [Example 341, (5α,8β)-2-[4-(3,3-Difluoro-cyclobutyl)-phenyl]-8-hydroxy-8-trifluoromethyl-2-aza-spiro[4.5]decan-1-one], the pIC50 is 5.87.

For the compound `COC[C@]1(O)CC[C@]2(CCN(c3ccc(C4CC(F)(F)C4)cc3)C2=O)CC1` [Example 342, (5α,8α)-2-[4-(3,3-Difluoro-cyclobutyl)-phenyl]-8-hydroxy-8-methoxymethyl-2-aza-spiro[4.5]decan-1-one], the pIC50 is 7.52.

`CCC[C@]1(O)CC[C@]2(CCN(c3ccc(C(C)(C)C)cc3)C2=O)CC1` [Example 343, (5α,8α)-2-(4-tert-Butyl-phenyl)-8-hydroxy-8-propyl-2-aza-spiro[4.5]decan-1-one]: the pIC50 was 7.70.

Regarding `CC(C)[C@]1(O)CC[C@]2(CCN(c3ccc(C(C)(C)C)cc3)C2=O)CC1` [Example 344, (5α,8α)-2-(4-tert-Butyl-phenyl)-8-hydroxy-8-isopropyl-2-aza-spiro[4.5]decan-1-one], the pIC50 was 8.00.

As for `CC(C)(C)c1ccc(N2CC[C@]3(CC[C@@](O)(C(F)(F)F)CC3)C2=O)cc1` [Example 345, (5α,8α)-2-(4-tert-Butyl-phenyl)-8-hydroxy-8-trifluoromethyl-2-aza-spiro[4.5]decan-1-one], the pIC50 was 7.70.

With `COC[C@]1(O)CC[C@]2(CCN(c3ccc(C(C)(C)C)cc3)C2=O)CC1` [Example 346, (5α,8α)-2-(4-tert-Butyl-phenyl)-8-hydroxy-8-methoxymethyl-2-aza-spiro[4.5]decan-1-one], the pIC50 was 7.70.

In the case of `CC(C)(C)c1ccc(N2CC[C@]3(CC[C@@](O)(COCC(F)(F)F)CC3)C2=O)cc1` [Example 347, (5α,8α)-2-(4-tert-Butyl-phenyl)-8-hydroxy-8-(2,2,2-trifluoro-ethoxymethyl)-2-aza-spiro[4.5]decan-1-one], the pIC50 was 8.00.

With `CCOC[C@]1(O)CC[C@]2(CCN(c3ccc(C(C)(C)C)cc3)C2=O)CC1` [Example 348, (5α,8α)-2-(4-tert-Butyl-phenyl)-8-ethoxymethyl-8-hydroxy-2-aza-spiro[4.5]decan-1-one], the pIC50 was 8.00.

Consider `CC(C)OC[C@]1(O)CC[C@]2(CCN(c3ccc(C(C)(C)C)cc3)C2=O)CC1` [Example 349, (5α,8α)-2-(4-tert-Butyl-phenyl)-8-hydroxy-8-isopropoxymethyl-2-aza-spiro[4.5]decan-1-one], for which the pIC50 was 8.00.

Turning to `CC(C)(C)c1ccc(N2CC[C@]3(CC[C@@](O)(CN4CCCC4=O)CC3)C2=O)cc1` [Example 350, (5α,8α)-2-(4-tert-Butyl-phenyl)-8-hydroxy-8-(2-oxo-pyrrolidin-1-ylmethyl)-2-aza-spiro[4.5]decan-1-one], the pIC50 is 8.00.

With `CC(C)(C)c1ccc(N2CC[C@]3(CC[C@@](O)(CN4CCCCC4=O)CC3)C2=O)cc1` [Example 351, (5α,8α)-2-(4-tert-Butyl-phenyl)-8-hydroxy-8-(2-oxo-piperidin-1-ylmethyl)-2-aza-spiro[4.5]decan-1-one], the pIC50 is 8.00.

Take `CC(C)(C)c1ccc(N2CCC3(CCC(O)(COc4ccccn4)CC3)C2=O)cc1` (stereo not drawn) [Example 352, (5α,8α)-2-(4-tert-Butyl-phenyl)-8-hydroxy-8-(pyridin-2-yloxymethyl)-2-aza-spiro[4.5]decan-1-one]: the pIC50 was 7.52.

On to `CC(C)(C)c1ccc(N2CCC3(CCC(O)(Cn4ccccc4=O)CC3)C2=O)cc1` (stereo not drawn) [Example 353, (5α,8α)-2-(4-tert-Butyl-phenyl)-8-hydroxy-8-(2-oxo-2H-pyridin-1-ylmethyl)-2-aza-spiro[4.5]decan-1-one], for which the pIC50 is 8.00.

Consider `CC(C)(C)c1ccc(N2CC[C@]3(CC[C@@](O)(COc4cccnc4)CC3)C2=O)cc1` [Example 354, (5α,8α)-2-(4-tert-Butyl-phenyl)-8-hydroxy-8-(pyridin-3-yloxymethyl)-2-aza-spiro[4.5]decan-1-one], for which the pIC50 is 7.30.

In the case of `CC(C)C(O)[C@H]1CC[C@@]2(CCN(c3ccc(C(C)(C)C)cc3)C2=O)CC1` (stereo partly drawn) [Example 355, (5α,8β)-2-(4-tert-Butyl-phenyl)-8-(1-hydroxy-2-methyl-propyl)-2-aza-spiro[4.5]decan-1-one], the negative-log IC50 (pIC50) was 7.30.

Take `CC(C)C(O)[C@H]1CC[C@]2(CCN(c3ccc(C(C)(C)C)cc3)C2=O)CC1` (some centres unmarked) [Example 356]: the pIC50 is 7.00.

On to `CC(O)C1CCC2(CC1)CCN(c1ccc(C(C)(C)C)cc1)C2=O` (stereo not drawn) [Example 357, (5α,8β)-2-(4-tert-Butyl-phenyl)-8-(1-hydroxy-ethyl)-2-aza-spiro[4.5]decan-1-one], for which the pIC50 is 7.30.

Consider `CC(O)C1CCC2(CC1)CCN(c1ccc(C(C)(C)C)cc1)C2=O` (stereo not drawn) [Example 358, (5α,8α)-2-(4-tert-Butyl-phenyl)-8-(1-hydroxy-ethyl)-2-aza-spiro[4.5]decan-1-one], for which the pIC50 is 7.30.

As for `CCC(O)[C@H]1CC[C@@]2(CCN(c3ccc(C(C)(C)C)cc3)C2=O)CC1` (stereo partly drawn) [Example 359, (5α,8β)-2-(4-tert-Butyl-phenyl)-8-(1-hydroxy-propyl)-2-aza-spiro[4.5]decan-1-one], the pIC50 is 7.52.

Consider `CC(C)(C)c1ccc(N2CCC3(CCC(C(O)(O)C(F)(F)F)CC3)C2=O)cc1` (centres unmarked) [Example 362, 2-(4-tert-Butyl-phenyl)-8-(2,2,2-trifluoro-1,1-dihydroxy-ethyl)-2-aza-spiro[4.5]decan-1-one], for which the pIC50 was 8.00.

For the compound `CC(C)(C)c1ccc(N2CC[C@]3(CC[C@@H](C(O)c4ccn[nH]4)CC3)C2=O)cc1` (stereo partly drawn) [Example 363, (5α,8β)-2-(4-tert-Butyl-phenyl)-8-[hydroxy-(2H-pyrazol-3-yl)-methyl]-2-aza-spiro[4.5]decan-1-one], the pIC50 was 7.52.

For the compound `CC(C)(C)c1ccc(N2CC[C@]3(CC[C@@H](Cc4ccn[nH]4)CC3)C2=O)cc1` [Example 364, (5α,8β)-2-(4-tert-Butyl-phenyl)-8-(2H-pyrazol-3-ylmethyl)-2-aza-spiro[4.5]decan-1-one], the pIC50 was 8.00.

For the compound `CCC(O)[C@H]1CC[C@@]2(CCN(c3ccc(O[C@H](C)C(F)(F)F)cc3)C2=O)CC1` (stereo partly drawn) [Example 365, (5α,8β)-8-(1-Hydroxy-propyl)-2-[4-((R)-2,2,2-trifluoro-1-methyl-ethoxy)-phenyl]-2-aza-spiro[4.5]decan-1-one], the negative-log IC50 (pIC50) was 7.30.

Consider `CCC(O)[C@H]1CC[C@]2(CCN(c3ccc(O[C@H](C)C(F)(F)F)cc3)C2=O)CC1` (stereo partly drawn) [Example 366, (5α,8α)-8-(1-Hydroxy-propyl)-2-[4-((R)-2,2,2-trifluoro-1-methyl-ethoxy)-phenyl]-2-aza-spiro[4.5]decan-1-one], for which the pIC50 was 6.54.

`O=C1CCCN1C[C@]1(O)CC[C@]2(CCN(c3ccc(OCC(F)(F)F)cc3)C2=O)CC1` [Example 367, (5α,8α)-8-Hydroxy-8-(2-oxo-pyrrolidin-1-ylmethyl)-2-[4-(2,2,2-trifluoro-ethoxy)-phenyl]-2-aza-spiro[4.5]decan-1-one]: the pIC50 is 7.10.

What is called pIC50 is −log10 of the IC50, conventionally taken in molar units.
